From patent US8043823B2, “Methods of identifying agonists and antagonists of hTASR bitter taste receptors” (Deutsches Institut fuer Ernaehrungsforschung, priority 2007, dated 2011)

Tests used:
Type in all cases: cell-based
[1] = biological target: T1, TAS2R47 (Homo sapiens, UniProt P59541); assay: FLIPR calcium imaging of HEK-293T Gα16gust44 cells transiently expressing TAS2R47
T1 construct: expressed in transfected cells; host or cells: HEK-293T cells stably expressing Gα16gust44
T1 sequence (P59541 1-319): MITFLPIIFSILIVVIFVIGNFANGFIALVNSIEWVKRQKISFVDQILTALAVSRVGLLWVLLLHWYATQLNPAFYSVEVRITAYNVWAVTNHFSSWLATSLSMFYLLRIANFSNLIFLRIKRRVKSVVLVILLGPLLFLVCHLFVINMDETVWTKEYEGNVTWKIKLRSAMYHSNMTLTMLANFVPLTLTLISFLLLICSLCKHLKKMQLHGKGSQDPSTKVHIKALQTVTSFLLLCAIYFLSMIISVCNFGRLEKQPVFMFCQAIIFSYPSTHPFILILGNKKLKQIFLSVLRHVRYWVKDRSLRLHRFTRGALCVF
Description: (§1) Functional expression. Human TAS2R cDNA constructs were used that encoded a plasma membrane-targeting sequence of the rat somatostatin type 3 receptor at the N-terminus of the recombinant polypeptide and a herpes simplex virus glycoprotein D (HSV) epitope at its C-terminus (Bufe et al., 2002). The constructs were transiently transfected into HEK-293T cells that stably express the chimeric G-protein subunit Gα16gust44 using Lipofectamine 2000 (Invitrogen, San Diego, Calif.) in 96-well microtiter plates. Calcium imaging experiments using an automated fluorometric imaging plate reader (FLIPR) (Molecular Devices, Munich, Germany) have been performed 24-32 h later essentially as described previously (Bufe et al., 2002). Tastants (Sigma-Aldrich, Taufkirchen, Germany) were dissolved and administered in the following (in mM): 130 NaCl, 5 KCl, 10 HEPES, 2 CaCl2, and 10 mM glucose, pH7.4. Data were collected from 1-2 independent experiments performed at least in triplicate and processed with SigmaPlot (SPSS, Chicago, Ill.). For dose-response curve calculation, the peak fluorescence responses after compound addition were corrected for and normalized to background fluorescence (ΔF/F=(F−F0)/F0), and baseline noise was subtracted. […]

[2] = biological target: T2, TAS2R50 (Homo sapiens, UniProt P59544, C203Y); assay: FLIPR calcium imaging of HEK-293T Gα16gust44 cells transiently expressing TAS2R50
T2 construct: expressed in transfected cells; host or cells: HEK-293T cells stably expressing Gα16gust44
T2 sequence (P59544 1-299 C203Y): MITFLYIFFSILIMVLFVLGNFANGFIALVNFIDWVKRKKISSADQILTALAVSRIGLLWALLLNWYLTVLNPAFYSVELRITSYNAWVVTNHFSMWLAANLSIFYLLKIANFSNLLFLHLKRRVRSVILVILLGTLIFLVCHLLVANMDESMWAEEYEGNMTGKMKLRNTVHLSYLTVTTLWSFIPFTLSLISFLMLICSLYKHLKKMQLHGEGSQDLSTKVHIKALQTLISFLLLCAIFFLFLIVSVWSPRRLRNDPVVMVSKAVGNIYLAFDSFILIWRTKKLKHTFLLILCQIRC
Description: as §1

[3] = biological target: T3, TAS2R46 (Homo sapiens, UniProt P59540); assay: FLIPR calcium imaging of HEK-293T Gα16gust44 cells transiently expressing TAS2R46; conditions: intracellular calcium response
T3 construct: expressed in transfected cells; host or cells: HEK-293T cells stably expressing Gα16gust44
T3 sequence (P59540 with tags, fused parts or gaps): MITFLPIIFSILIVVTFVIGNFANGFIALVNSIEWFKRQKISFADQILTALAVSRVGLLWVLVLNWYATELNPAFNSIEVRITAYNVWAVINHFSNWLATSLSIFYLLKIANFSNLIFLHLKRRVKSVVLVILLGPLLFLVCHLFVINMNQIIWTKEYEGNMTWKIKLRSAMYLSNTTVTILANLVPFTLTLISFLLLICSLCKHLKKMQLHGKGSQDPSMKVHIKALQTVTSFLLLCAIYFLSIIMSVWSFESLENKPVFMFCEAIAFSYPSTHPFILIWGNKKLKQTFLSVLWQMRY
Description: as §1

Row | SMILES | molar range at which TAS2R47 responded ([1]; Table 1, assay similar to Example 1) | EC50 ([2]; dose-response curve on TAS2R50, FIG. 2, one experiment in triplicate) | response of TAS2R50 in FLIPR calcium imaging ([2]; result in words) | concentration at which TAS2R47-expressing HEK293 cells responded ([1]; intracellular calcium response, 30 μM or higher) | concentration to which TAS2R46-expressing cells already responded [3]
1 | CC12CCC(CC1=O)C2(C)C (centres unmarked) [Camphor, camphor] | 0.3 mM | – | – | – | –
2 | C=C1CC[C@@H]2[C@](C)(CO)[C@H](O)CC[C@@]2(C)[C@@H]1C/C=C1/C(=O)OC[C@H]1O [andrographolide] | – | 5.6 µM | low micromolar range | ≥ 30 µM | 3 µM
